According to patent US8785434B2, “Antiviral compounds” (Prosetta Antiviral Inc., priority 2010, dated 2014):

System: respiratory viruses (Corona Virus on MRC5 Cells, Influenza Virus A on MDCK Cells, Respiratory Syncytial Virus on HEp2 cells, Adenovirus serotype 5 on A549 …)
Assay: Respiratory viruses: virus grown in the presence of compound, infectious virus titrated by TCID50
Format: cell-based
Conditions: qualitative statement; compound tested at 10 μM, 2 μM, 0.4 μM and 0.08 μM
Description: The activities of compounds of the invention were determined for the following viruses using the protocol below:
Corona Virus on MRC5 Cells
Influenza Virus A on MDCK Cells
Respiratory Syncytial Virus on HEp2 cells
Adenovirus serotype 5 on A549 cells
Human Rhinovirus on H1Hela Cells
Herpes Simplex Virus 1 on Vero cells
Virus was grown in the presence of four dilutions (10 μM, 2 μM, 0.4 μM and 0.08 μM) of the chemical compound tested with two controls using standard methods and materials for the relevant virus. The infected cell extract was collected using known methods, and the infectious virus concentration was determined using standard techniques.
Each well was titrated by TCID50. Four serial dilutions in quadruplicate required to determine the titer of each well. To assay 36 replicates as directed, one hundred eight (108) 96-well plates will be required. Each drug was tested at four dilutions against one virus will require TCID50 titers of 18 sample wells.

## Cc1cc(N(C)C)cc2[s+]c3cc(N4CCN(C)CC4)cc(C)c3nc12.[I-] [3-(Dimethylamino)-1,9-dimethyl-7-(4-methylpiperazin-1-yl)phenothiazin-5-ium iodide]
  activity across all of the respiratory viruses tested (pan-respiratory anti-viral activity): surprisingly strong activity across all of the respiratory viruses tested
